Key:
Test in all cases: KinomeScan profiling
Format in all cases: binding
CLK1 = CLK1 (Homo sapiens, UniProt P49759); settings: CLK1, 1 μM; read-out: % control
Summary of the method: (§1)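 At 1 μM in DMSO, compounds are run through a broad 468-member kinase panel. The luminescent read-out is normalised so that vehicle gives 100% and a positive control gives 0%; any kinase falling below 35% is treated as a target.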

[1] = target: T1, ABL1(F317L)-phosphorylated (Homo sapiens, UniProt P00519, F317L); settings: read-out: % control
T1 construct: purchased KinomeScan®
Summary of the method: as §1

FGR = FGR (Homo sapiens, UniProt P09769); settings: read-out: % control
Summary of the method: as §1

CAMK1G = CAMK1G (Homo sapiens, UniProt Q96NX5); settings: read-out: % control
Summary of the method: as §1

CSK = CSK (Homo sapiens, UniProt P41240); settings: read-out: % control
Summary of the method: as §1

AXL = target: T2, AXL (Homo sapiens, UniProt P30530); settings: read-out: % control
T2 construct: purchased KinomeScan®
T2 sequence (P30530 26-894): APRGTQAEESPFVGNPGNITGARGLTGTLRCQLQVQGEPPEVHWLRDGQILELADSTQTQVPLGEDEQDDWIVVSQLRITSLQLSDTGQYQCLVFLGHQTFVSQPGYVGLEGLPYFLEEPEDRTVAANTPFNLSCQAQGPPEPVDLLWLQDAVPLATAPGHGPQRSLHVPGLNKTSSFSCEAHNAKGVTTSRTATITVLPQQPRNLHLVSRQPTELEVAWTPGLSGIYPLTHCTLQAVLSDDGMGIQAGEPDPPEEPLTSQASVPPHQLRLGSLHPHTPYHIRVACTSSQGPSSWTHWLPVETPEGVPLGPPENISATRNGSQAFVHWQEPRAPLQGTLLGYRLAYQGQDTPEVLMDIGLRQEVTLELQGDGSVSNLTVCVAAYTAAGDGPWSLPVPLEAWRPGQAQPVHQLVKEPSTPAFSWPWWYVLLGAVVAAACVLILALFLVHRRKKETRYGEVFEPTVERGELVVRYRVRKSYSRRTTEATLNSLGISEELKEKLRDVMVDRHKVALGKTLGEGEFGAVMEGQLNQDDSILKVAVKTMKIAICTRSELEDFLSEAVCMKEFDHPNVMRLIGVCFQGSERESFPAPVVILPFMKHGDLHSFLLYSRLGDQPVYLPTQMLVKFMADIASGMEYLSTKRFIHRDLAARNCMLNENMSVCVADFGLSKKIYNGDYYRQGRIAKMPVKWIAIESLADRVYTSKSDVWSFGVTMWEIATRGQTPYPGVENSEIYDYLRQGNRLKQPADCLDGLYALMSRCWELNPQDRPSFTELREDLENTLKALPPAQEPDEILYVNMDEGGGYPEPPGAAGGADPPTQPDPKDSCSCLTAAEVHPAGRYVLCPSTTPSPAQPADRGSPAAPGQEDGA
Summary of the method: as §1

NEK11 = target: T3, NEK11 (Homo sapiens, UniProt Q8NG66); settings: NEK11, 1 μM; read-out: % control
T3 sequence (Q8NG66 1-645): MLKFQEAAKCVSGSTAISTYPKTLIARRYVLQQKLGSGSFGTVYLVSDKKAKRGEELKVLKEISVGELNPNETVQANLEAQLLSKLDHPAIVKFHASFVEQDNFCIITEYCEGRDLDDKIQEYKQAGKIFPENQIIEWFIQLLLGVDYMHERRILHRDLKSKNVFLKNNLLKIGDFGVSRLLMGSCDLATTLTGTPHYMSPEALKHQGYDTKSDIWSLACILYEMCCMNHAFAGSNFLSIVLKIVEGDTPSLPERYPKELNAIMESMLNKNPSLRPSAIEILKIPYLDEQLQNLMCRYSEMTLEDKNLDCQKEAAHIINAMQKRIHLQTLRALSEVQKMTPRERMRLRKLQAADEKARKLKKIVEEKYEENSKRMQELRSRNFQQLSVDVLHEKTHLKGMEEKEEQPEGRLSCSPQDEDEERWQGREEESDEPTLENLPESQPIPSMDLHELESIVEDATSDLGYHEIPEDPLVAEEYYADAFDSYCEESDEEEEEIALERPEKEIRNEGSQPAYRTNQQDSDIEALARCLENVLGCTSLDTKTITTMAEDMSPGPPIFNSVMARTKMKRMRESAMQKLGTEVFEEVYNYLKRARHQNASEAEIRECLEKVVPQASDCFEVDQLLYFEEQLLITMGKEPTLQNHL
Summary of the method: as §1

[2] = target: T4, ABL1(H396P)-phosphorylated (Homo sapiens, UniProt P00519, H396P); settings: read-out: % control
T4 construct: purchased KinomeScan®
Summary of the method: as §1

PIK3CA(E545K) = target: T5, PIK3CA(E545K) (Homo sapiens, UniProt P42336, E545K); settings: read-out: % control
T5 construct: purchased KinomeScan® (panel service)
Summary of the method: as §1

MAP4K5 = MAP4K5 (Homo sapiens, UniProt Q9Y4K4); settings: MAP4K5, 1 μM; read-out: % control
Summary of the method: as §1

Chain of MAP4K5 (Q9Y4K4 whole entry): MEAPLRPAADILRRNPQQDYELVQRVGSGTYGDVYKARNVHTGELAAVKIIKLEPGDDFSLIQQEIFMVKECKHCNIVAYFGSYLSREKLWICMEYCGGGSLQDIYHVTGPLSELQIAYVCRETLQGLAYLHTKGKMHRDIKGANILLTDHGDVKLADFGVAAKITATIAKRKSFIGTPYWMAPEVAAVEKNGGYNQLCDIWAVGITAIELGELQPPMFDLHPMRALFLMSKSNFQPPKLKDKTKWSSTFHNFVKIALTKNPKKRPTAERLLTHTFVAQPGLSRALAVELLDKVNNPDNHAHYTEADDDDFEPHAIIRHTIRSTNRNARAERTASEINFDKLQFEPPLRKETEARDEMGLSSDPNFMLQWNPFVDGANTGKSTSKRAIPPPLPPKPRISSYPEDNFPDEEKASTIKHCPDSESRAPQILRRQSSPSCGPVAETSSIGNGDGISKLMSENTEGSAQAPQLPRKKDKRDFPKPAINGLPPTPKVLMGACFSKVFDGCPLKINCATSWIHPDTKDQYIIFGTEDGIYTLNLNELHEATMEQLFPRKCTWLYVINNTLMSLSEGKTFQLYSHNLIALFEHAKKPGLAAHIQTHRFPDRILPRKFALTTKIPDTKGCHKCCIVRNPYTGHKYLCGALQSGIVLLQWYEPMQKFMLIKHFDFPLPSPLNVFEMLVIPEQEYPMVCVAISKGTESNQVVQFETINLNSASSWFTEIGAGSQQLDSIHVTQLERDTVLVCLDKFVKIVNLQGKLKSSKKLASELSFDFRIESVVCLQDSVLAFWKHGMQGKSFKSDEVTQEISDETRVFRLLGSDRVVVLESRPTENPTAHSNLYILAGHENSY
Chain of CLK1 (P49759 whole entry): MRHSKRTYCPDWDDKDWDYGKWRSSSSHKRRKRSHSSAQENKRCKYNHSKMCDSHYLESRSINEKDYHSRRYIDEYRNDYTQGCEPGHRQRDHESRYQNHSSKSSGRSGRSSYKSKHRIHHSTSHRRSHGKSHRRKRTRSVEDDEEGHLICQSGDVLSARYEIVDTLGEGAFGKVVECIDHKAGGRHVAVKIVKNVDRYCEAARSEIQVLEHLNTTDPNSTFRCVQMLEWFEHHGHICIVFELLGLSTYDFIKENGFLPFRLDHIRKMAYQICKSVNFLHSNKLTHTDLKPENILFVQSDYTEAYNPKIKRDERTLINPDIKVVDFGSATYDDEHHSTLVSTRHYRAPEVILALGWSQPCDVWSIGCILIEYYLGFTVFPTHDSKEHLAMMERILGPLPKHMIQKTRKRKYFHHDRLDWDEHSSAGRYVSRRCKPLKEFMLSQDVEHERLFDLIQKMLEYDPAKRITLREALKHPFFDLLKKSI
Chain of FGR (P09769 whole entry): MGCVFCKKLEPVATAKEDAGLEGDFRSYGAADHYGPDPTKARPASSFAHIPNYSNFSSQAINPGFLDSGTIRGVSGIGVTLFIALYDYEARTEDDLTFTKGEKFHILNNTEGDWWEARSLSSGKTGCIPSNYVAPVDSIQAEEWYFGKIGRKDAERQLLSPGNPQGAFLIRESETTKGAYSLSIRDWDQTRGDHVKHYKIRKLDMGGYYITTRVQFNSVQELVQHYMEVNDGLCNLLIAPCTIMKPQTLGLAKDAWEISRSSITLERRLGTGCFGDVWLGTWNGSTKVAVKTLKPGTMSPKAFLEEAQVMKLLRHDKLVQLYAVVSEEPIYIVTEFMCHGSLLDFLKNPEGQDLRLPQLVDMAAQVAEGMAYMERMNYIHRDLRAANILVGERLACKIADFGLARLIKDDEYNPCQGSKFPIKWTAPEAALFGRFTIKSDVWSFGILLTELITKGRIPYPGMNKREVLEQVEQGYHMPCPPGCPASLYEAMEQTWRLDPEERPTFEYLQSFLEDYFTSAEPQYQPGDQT
Chain of CAMK1G (Q96NX5 whole entry): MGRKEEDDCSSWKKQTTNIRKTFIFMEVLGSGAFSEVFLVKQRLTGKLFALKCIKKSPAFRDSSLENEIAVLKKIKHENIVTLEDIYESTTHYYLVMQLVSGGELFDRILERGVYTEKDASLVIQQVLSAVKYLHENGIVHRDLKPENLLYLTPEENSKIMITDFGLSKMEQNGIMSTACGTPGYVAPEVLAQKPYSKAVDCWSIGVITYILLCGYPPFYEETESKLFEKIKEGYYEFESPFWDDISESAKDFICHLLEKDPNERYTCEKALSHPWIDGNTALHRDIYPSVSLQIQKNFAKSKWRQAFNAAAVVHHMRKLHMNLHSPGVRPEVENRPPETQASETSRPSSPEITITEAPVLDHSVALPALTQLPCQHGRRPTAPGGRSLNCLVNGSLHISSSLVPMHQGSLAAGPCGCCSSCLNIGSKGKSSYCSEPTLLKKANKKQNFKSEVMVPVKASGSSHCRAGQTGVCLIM
Chain of CSK (P41240 whole entry): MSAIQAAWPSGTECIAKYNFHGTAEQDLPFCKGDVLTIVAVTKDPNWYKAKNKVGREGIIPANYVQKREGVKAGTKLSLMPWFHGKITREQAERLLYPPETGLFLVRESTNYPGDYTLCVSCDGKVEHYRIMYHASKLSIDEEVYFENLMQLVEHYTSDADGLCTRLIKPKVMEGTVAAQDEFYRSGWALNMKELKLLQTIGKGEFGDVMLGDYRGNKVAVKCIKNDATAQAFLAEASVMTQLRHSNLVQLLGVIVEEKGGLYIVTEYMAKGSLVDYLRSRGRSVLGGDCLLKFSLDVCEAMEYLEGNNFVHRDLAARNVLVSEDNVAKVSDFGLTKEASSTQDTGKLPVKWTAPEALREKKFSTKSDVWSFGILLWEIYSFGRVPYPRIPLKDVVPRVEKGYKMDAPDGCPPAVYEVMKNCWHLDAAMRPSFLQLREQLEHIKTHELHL
T5 sequence (P42336 whole entry E545K): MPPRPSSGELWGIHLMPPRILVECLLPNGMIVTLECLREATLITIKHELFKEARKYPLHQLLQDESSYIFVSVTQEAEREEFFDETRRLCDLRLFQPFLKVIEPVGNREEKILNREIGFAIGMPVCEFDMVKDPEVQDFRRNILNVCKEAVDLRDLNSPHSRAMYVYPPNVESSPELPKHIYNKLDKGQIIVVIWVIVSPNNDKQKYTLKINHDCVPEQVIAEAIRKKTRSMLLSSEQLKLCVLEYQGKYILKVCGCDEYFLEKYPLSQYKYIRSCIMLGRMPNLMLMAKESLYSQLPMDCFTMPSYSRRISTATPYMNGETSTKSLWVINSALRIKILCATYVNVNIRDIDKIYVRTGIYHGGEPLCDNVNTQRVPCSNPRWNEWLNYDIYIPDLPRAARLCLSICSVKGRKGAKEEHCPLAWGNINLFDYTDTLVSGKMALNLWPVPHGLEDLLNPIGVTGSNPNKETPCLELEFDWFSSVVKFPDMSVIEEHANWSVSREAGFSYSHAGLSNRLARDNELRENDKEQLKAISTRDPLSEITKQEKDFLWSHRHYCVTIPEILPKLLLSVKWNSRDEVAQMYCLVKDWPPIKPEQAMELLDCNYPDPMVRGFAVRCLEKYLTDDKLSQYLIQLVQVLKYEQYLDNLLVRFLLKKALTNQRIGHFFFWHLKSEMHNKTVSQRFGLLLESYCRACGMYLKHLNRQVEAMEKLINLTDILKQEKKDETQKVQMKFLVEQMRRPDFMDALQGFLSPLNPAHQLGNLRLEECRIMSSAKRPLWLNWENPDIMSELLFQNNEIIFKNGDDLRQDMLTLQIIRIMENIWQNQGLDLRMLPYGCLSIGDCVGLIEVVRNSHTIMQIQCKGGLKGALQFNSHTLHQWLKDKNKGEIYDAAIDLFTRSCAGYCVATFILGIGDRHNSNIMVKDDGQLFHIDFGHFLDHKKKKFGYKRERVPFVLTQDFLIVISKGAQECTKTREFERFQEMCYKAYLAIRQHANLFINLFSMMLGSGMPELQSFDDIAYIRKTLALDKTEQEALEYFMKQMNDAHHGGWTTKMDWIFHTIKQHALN

Structure (SMILES)	remaining binding at 1 µM (CLK1) [%]	remaining binding at 1 µM [1] [%]	remaining binding at 1 µM (FGR) [%]	remaining binding at 1 µM (CAMK1G) [%]	remaining binding at 1 µM (CSK) [%]	remaining binding at 1 µM (AXL) [%]	remaining binding at 1 µM (NEK11) [%]	remaining binding at 1 µM [2] [%]	remaining binding at 1 µM (PIK3CA(E545K)) [%]	remaining binding at 1 µM (MAP4K5) [%]
CNc1c(-c2cnn([C@H]3CCN(C(C)=O)C[C@@H]3F)c2)cnc2[nH]cc(Cl)c12 [Compound 77, 1-((3S,4S)-4-(4-(3-chloro-4-(methylamino)-1H-pyrrolo[2,3-b]pyridin-5-yl)-1H-pyrazol-1-yl)-3-fluoropiperidin-1-yl)ethan-1-one]	84	91	80	100	22	8.5	97	81	18	77
O=C(c1ccc(-c2cnc3[nH]cc(Cl)c3c2NC2CCCC2)cc1)N1CCC(N2CCOCC2)CC1 [Compound 101, (4-(3-chloro-4-(cyclopentylamino)-1H-pyrrolo[2,3-b]pyridin-5-yl)phenyl)(4-morpholinopiperidin-1-yl)methanone]	59	43	94	93	100	40	100	100	79	88
CNc1c(-c2ccc(C(=O)N3CCC(N4CCOCC4)CC3)cc2)cnc2[nH]cc(Cl)c12 [Compound 96, (4-(3-chloro-4-(methylamino)-1H-pyrrolo[2,3-b]pyridin-5-yl)phenyl)(4-morpholinopiperidin-1-yl)methanone]	33	81	95	98	44	33	96	100	31	39

— patent publication US12275731B2, “Azaindole inhibitors of wild-type and mutant forms of LRRK2” (DANA-FARBER CANCER INSTITUTE, INC., priority 2018, dated 2025)
